Data: patent publication US20240245051A1, “DISINFECTING, ANTIMICROBIAL AND PRESERVATIVE COMPOSITION” (BJBIOCHEM CO., LTD., priority 2021, published 2024)

Key:
Assay in all cases: Antimicrobial test, broth dilution method (MIC)
Format in all cases: cell-based
Conditions in all cases: single compounds of Comparative Examples
P. aeruginosa = system: P. aeruginosa
Experimental: (§1) The antimicrobial activity of the test solution was measured using a broth dilution method. The concentration of the test solution that was treated was diluted from the highest concentration of 5% to the lowest concentration of 0.0001%. The test solution was cultured in the presence of the strain and then the turbidity of the tube was determined. […] After the primary test described as above, the concentration of the test solution that was treated was further subdivided and a secondary test was conducted to obtain an accurate minimum inhibitory concentration (MIC).
(§2) Test strains E. coli, S. aureus, and P. aeruginosa were inoculated into tryptic soy broth and incubated at 35±2° C. for 16 to 24 hours. C. albicans was inoculated into Sabouraud dextrose broth and cultured at 35° C. for 24 hours. A. niger was seeded on potato dextrose agar and cultured at (25±1°) C for 7 days, sterile physiological saline was dispensed into a solid medium on which the bacteria grew, and spores were removed using a spreader and then diluted in sterile physiological saline.
(§3) A liquid medium was put into the tube and the concentration of the test solution that was treated was diluted from the highest concentration of 5% to the lowest concentration of 0.0001%. The liquid media used for E. coli, S. aureus, and P. aeruginosa (bacteria) were tryptic soy broth, and the liquid media used for C. albicans, and A. niger (fungi) were Sabouraud dextrose broth.
(§4) E. coli, S. aureus, and P. aeruginosa of the strains were inoculated at a concentration of 1×10^5 CFU/mL in the test tube. The tubes treated with the test solution were incubated at 35±2° C. for 16 to 24 hours. C. albicans and A. niger were inoculated at a concentration of 1×10^4 CFU/mL in the test tube. After treatment with the test solution was completed, C. albicans was cultured at 35° C. for 24 to 48 hours and A. niger was cultured at 25° C. for 46 to 50 hours. A medium tube, to which the bacterial solution was not added, was used as a negative control, and a tube containing the medium inoculated with only the bacterial solution without the test solution was used as a growth control. In addition, in order to determine the antimicrobial activity of dipropylene glycol itself used as a solvent, the MIC of the test bacteria for the solvent was measured under the same conditions as in the sample.

S. aureus = system: S. aureus
Experimental: as §1, §2, §3, §4

E. coli = system: E. coli
Experimental: as §1, §2, §3, §4

C. albicans = system: C. albicans
Experimental: as §1, §2, §3, §4

A. niger = system: A. niger
Experimental: as §1, §2, §3, §4

| minimum inhibitory concentration (MIC), P. Aeruginosa (P. aeruginosa) [%] | minimum inhibitory concentration (MIC), S. Aureus (S. aureus) [%] | minimum inhibitory concentration (MIC), E. coli (E. coli) [%] | minimum inhibitory concentration (MIC), C. albicans (C. albicans) [%] | minimum inhibitory concentration (MIC), A. niger (A. niger) [%] | Compound |
| --- | --- | --- | --- | --- | --- |
| 0.03 | 0.01 | 0.01 | 0.01 | 0.09 | CCCCCCCCCCCCNCC(O)CO (centres unmarked) [Comparative Example 1, (3-dodecylamino)propane-1,2-diol] |
| 1 | 2 | 1 | 2 | 0.5 | CCCCC(O)CO (centres unmarked) [Comparative Example 2, Hexane-1,2-diol] |
| 0.5 | 0.5 | 0.25 | 0.5 | 0.3 | CCCCCCC(O)CO (centres unmarked) [Comparative Example 3, Octane-1,2-diol] |
| 0.045 | 0.025 | 0.09 | 0.011 | 0.006 | CCCCCCCCC(O)CO (centres unmarked) [Comparative Example 4, Decane-1,2-diol] |
| 0.5 | 0.5 | 0.2 | 0.64 | 0.32 | CCCCCCOCC(O)CO (centres unmarked) [Comparative Example 5, Hexyl glycerin] |
| 0.5 | 0.5 | 0.5 | 0.25 | 0.5 | CCCCCCCCOCC(O)CO (centres unmarked) [Comparative Example 6, Octyl glycerin] |
| 2 | 0.15 | 0.3 | 0.5 | 0.5 | CCCCC(CC)COCC(O)CO (centres unmarked) [Comparative Example 7, Ethylhexylglycerin] |
| 0.4 | 0.02 | 0.02 | 0.005 | 0.005 | COc1ccccc1/C=C/C=O [Comparative Example 10, 2-methoxycinnamaldehyde] |
| 0.1 | 0.1 | 0.5 | 1 | 0.5 | CC(=O)CCc1ccc(O)cc1 [Comparative Example 11, Raspberry ketone] |
| 0.2 | 0.4 | 0.4 | 0.03 | 0.03 | OCCCc1ccccc1 [Comparative Example 12, 3-phenyl-1-propanol] |
| 0.1 | 0.2 | 0.15 | 0.1 | 0.5 | CC(=O)c1ccc(O)cc1 [Comparative Example 13, 4-hydroxy acetophenone] |
| 0.12 | 0.06 | 0.06 | 0.03 | 0.02 | CCCCCCCC(=O)NO [Comparative Example 17, Caprylhydroxamic acid] |
| 0.2 | 0.05 | 0.05 | 0.2 | 0.3 | Cc1cc(CC(C)CC(C)(C)C)n(O)c(=O)c1 (centres unmarked) [Comparative Example 18, Piroctone olamine] |
| 0.003 | 0.003 | 0.003 | 0.001 | 0.003 | CCCCCCCCCCCC(=O)NC(CCCN=C(N)N)C(=O)OCC (centres unmarked) [Comparative Example 19, Lauroyl arginine ethyl ester] |
| 0.1 | 0.02 | 0.02 | 0.1 | 0.15 | CC(=O)CCC(=O)O [Comparative Example 20, Levulinic acid] |
| 0.05 | 0.01 | 0.05 | 0.1 | 0.1 | COc1ccc(C(=O)O)cc1 [Comparative Example 22, Sodium anisate] |

| Compound | minimum inhibitory concentration (MIC), P. Aeruginosa (P. aeruginosa) [%] | minimum inhibitory concentration (MIC), S. Aureus (S. aureus) [%] | minimum inhibitory concentration (MIC), E. coli (E. coli) [%] | minimum inhibitory concentration (MIC), C. albicans (C. albicans) [%] | minimum inhibitory concentration (MIC), A. niger (A. niger) [%] |
| --- | --- | --- | --- | --- | --- |
| O=C/C=C/c1ccccc1 [Comparative Example 9, Cinnamaldehyde] | 0.1 | 0.03 | 0.05 | 0.02 | 0.03 |
| O=C([O-])c1ccccc1.[Na+] [Comparative Example 14, Sodium benzoate] | 0.016 | 0.002 | 0.016 | 0.12 | 0.1 |
| OCCOc1ccccc1 [Comparative Example 15, Phenoxy EtOH] | 0.09 | 0.06 | 0.06 | 0.12 | 0.12 |
| O=C([O-])CN(CCN(CC(=O)[O-])CC(=O)[O-])CC(=O)[O-].[Na+].[Na+].[Na+].[Na+] [Comparative Example 24, Tetrasodium EDTA] | 0.15 | 0.1 | 0.1 | 0.05 | 0.15 |
| Citric acid [Comparative Example 21] | 0.1 | 0.1 | 0.1 | 0.05 | 0.2 |
| Disodium EDTA [Comparative Example 23] | 0.15 | 0.1 | 0.1 | 0.05 | 0.15 |
